Columns and labels:
Assay in all cases: relative viability (nuclei count vs DMSO), 5 days (fraction); higher = more cells survive
LCLC-97TM1 = tested on: LCLC-97TM1
Procedure, shortened: (§1)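 Relative viability equals treated-well nuclei counts divided by vehicle-well nuclei counts. Counts came from 4× images of lung cancer cell lines grown in 1536-well plates for 5 days after pin-tool dosing on the day after seeding. Dosing used one drug alone or a fixed anchor-drug dose plus five library-drug doses (not always all listed) in √10 steps, and values are medians of duplicate plates.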

CAL-12T = tested on: CAL-12T
Procedure, shortened: as §1

NCI-H1395 = tested on: NCI-H1395
Procedure, shortened: as §1

LXF-289 = tested on: LXF-289
Procedure, shortened: as §1

HCC-827 = tested on: HCC-827
Procedure, shortened: as §1

HCC-44 = tested on: HCC-44
Procedure, shortened: as §1

NCI-H1437 = tested on: NCI-H1437
Procedure, shortened: as §1

NCI-H647 = tested on: NCI-H647
Procedure, shortened: as §1

NCI-H2228 = tested on: NCI-H2228
Procedure, shortened: as §1

NCI-H1650 = tested on: NCI-H1650
Procedure, shortened: as §1

LCLC-103H = tested on: LCLC-103H
Procedure, shortened: as §1

201T = tested on: 201T
Procedure, shortened: as §1

Clc1ccc(Nc2nnc(Cc3ccncc3)c3ccccc23)cc1 [Vatalanib] + CC(=O)c1c(C)c2cnc(Nc3ccc(N4CCNCC4)cn3)nc2n(C2CCCC2)c1=O [Palbociclib] (partner 0.5 µM)
relative viability (LCLC-97TM1; first compound 0.04 µM): 0.172 | relative viability (LCLC-97TM1; first compound 0.1265 µM): 0.252 | relative viability (LCLC-97TM1; first compound 0.4 µM): 0.194 | relative viability (LCLC-97TM1; first compound 1.265 µM): 0.247 | relative viability (LCLC-97TM1; first compound 4 µM): 0.21 | relative viability (CAL-12T; first compound 0.04 µM): 0.409 | relative viability (CAL-12T; first compound 0.1265 µM): 0.312 | relative viability (CAL-12T; first compound 0.4 µM): 0.384 | relative viability (CAL-12T; first compound 1.265 µM): 0.345 | relative viability (CAL-12T; first compound 4 µM): 0.425 | relative viability (NCI-H1395; first compound 0.04 µM): 0.654 | relative viability (NCI-H1395; first compound 0.1265 µM): 0.622 | relative viability (NCI-H1395; first compound 0.4 µM): 0.631 | relative viability (NCI-H1395; first compound 4 µM): 0.568 | relative viability (LXF-289; first compound 0.04 µM): 0.611 | relative viability (LXF-289; first compound 0.1265 µM): 0.544 | relative viability (LXF-289; first compound 0.4 µM): 0.599 | relative viability (LXF-289; first compound 1.265 µM): 0.585 | relative viability (LXF-289; first compound 4 µM): 0.556 | relative viability (HCC-827; first compound 0.04 µM): 0.484 | relative viability (HCC-827; first compound 0.1265 µM): 0.406 | relative viability (HCC-827; first compound 1.265 µM): 0.49 | relative viability (HCC-827; first compound 4 µM): 0.475 | relative viability (HCC-44; first compound 0.04 µM): 0.922 | relative viability (HCC-44; first compound 0.1265 µM): 0.981 | relative viability (HCC-44; first compound 0.4 µM): 0.913 | relative viability (HCC-44; first compound 1.265 µM): 0.955 | relative viability (HCC-44; first compound 4 µM): 0.959 | relative viability (NCI-H1437; first compound 0.04 µM): 0.309 | relative viability (NCI-H1437; first compound 0.1265 µM): 0.318 | relative viability (NCI-H1437; first compound 0.4 µM): 0.356 | relative viability (NCI-H1437; first compound 1.265 µM): 0.294 | relative viability (NCI-H1437; first compound 4 µM): 0.279 | relative viability (NCI-H647; first compound 0.04 µM): 0.415 | relative viability (NCI-H647; first compound 0.1265 µM): 0.34 | relative viability (NCI-H647; first compound 0.4 µM): 0.37 | relative viability (NCI-H647; first compound 1.265 µM): 0.37 | relative viability (NCI-H647; first compound 4 µM): 0.386 | relative viability (NCI-H2228; first compound 0.04 µM): 0.795 | relative viability (NCI-H2228; first compound 0.1265 µM): 0.838 | relative viability (NCI-H2228; first compound 0.4 µM): 0.806 | relative viability (NCI-H2228; first compound 1.265 µM): 0.765 | relative viability (NCI-H2228; first compound 4 µM): 0.612 | relative viability (NCI-H1650; first compound 0.04 µM): 0.364 | relative viability (NCI-H1650; first compound 0.1265 µM): 0.384 | relative viability (NCI-H1650; first compound 0.4 µM): 0.299 | relative viability (NCI-H1650; first compound 1.265 µM): 0.33 | relative viability (NCI-H1650; first compound 4 µM): 0.312 | relative viability (LCLC-103H; first compound 0.04 µM): 0.506 | relative viability (LCLC-103H; first compound 0.1265 µM): 0.452 | relative viability (LCLC-103H; first compound 0.4 µM): 0.503 | relative viability (LCLC-103H; first compound 1.265 µM): 0.443 | relative viability (LCLC-103H; first compound 4 µM): 0.513 | relative viability (201T; first compound 0.04 µM): 0.777 | relative viability (201T; first compound 0.1265 µM): 0.344 | relative viability (201T; first compound 0.4 µM): 0.348 | relative viability (201T; first compound 1.265 µM): 0.341 | relative viability (201T; first compound 4 µM): 0.332

Source: the supplement of paper PMC10307832
